The test system of one series is synthesis of cholesterol. Particulars: in words; Japanese Patent Application No. 165490/1983, J. Antibiotics 38, 328-332 (1985); cited from earlier work.
The next series can be described thus: Acidity (pKa) of CB3A. It counts as physicochemical.
Series [1] can be described thus: Absorbability and effect (statement in words).
A short description of series [2]: Water solubility, hygroscopic property and stability (statements in words). It counts as physicochemical.
The subject of a further series is mouse. Nature of the series: Acute toxicity, mouse. In kind it is in vivo. The text has this:
(§1) The acute toxicity of the metal salt of CB3A and of CK3A was examined by orally or peritoneally administrating an aqueous solution or dispersion thereof the results are shown in Table 2.
(§2) a . . . per os (oral administration)
(§3) b . . . intraperitoneal injection

The subject of the next series is serum cholesterol. The series is described as follows: Serum cholesterol lowering activity, oral, rabbit, 5 successive days. In kind it is in vivo. Particulars: two times a day, 5 days. As for the experimental part: (1) Serum cholesterol lowering activity the metal salt of organic phosphate according to the present invention was orally administered to a rabbit (body weight of about 3 Kg) two times a day (at 9:00 a.m. and 4:00 p.m.) for 5 successive days. After 5 days, blood was sampled and the total cholesterol value in serum was measured in a conventional manner.

The nature of series [3]: Stability, 5 weeks at 45° C. and humidity of 80% (HPLC remaining rate). Particulars: after 5 weeks, humidity of 80%, 50400 min. In kind it is physicochemical. The protocol: One gram each of CB3A, CK3A and various metal salts thereof was placed in a beaker and the beaker was allowed to stand for 5 weeks in a constant temperature and humidity bath controlled at a temperature of 45° C. and a humidity of 80%. After 5 weeks, a remaining rate of the compound was analyzed quantitatively with a high performance liquid chromatography "Tri rotar" manufactured by Nippon Bunko K. K. (Japan).
A0 = initial amount of the compound prior to standing in the constan
temperature and humidity bath
A1 = final amount of the compound after 5 weeks

Another series deals with rat. The series is described as follows: Acute toxicity, rat. In kind it is in vivo.
Description: as §1, §2, §3

Where two headings read alike, the source gives them in different places.

`CCC(C)C(=O)OC1CCC=C2C=CC(C)C(CCC(CC(O)CC(=O)OC)OP(=O)(O)O)C21` (stereo not shown) [CB3A methyl ester]: the “activity of inhibiting the synthesis of cholesterol” value in the series with synthesis of cholesterol is on record as “strong activity of inhibiting the synthesis of cholesterol”.
As to `CCC(C)C(=O)OC1CCC=C2C=CC(C)C(CCC(CC(O)CC(=O)O)OP(=O)(O)O)C21` (stereo not shown) [CB3A, reference compound], the pKa in “Acidity (pKa) of CB3A” (carboxylic acid group in CB3A molecule, read-out: pKa3) turned out to be 7.1; in the series “Acidity (pKa) of CB3A” (phosphoric acid group in CB3A molecule, read-out: pKa1), 2.2; in the series “Acidity (pKa) of CB3A” (phosphoric acid group in CB3A molecule, read-out: pKa2), 5. The absorbability and effect entry in series [1] was “unsatisfactory”. Also, the stability entry in series [2] (listed as CB3K) was “unstable”. Also, the “activity of inhibiting the synthesis of cholesterol” value in the series with synthesis of cholesterol is “strong activity of inhibiting the synthesis of cholesterol”. Further, the LD50 with mouse (intraperitoneal injection) is on record as more than 500 mg/kg; in the series on mouse (per os (oral administration)), more than 2000 mg/kg; in the series on rat (intraperitoneal injection) it was more than 500 mg/kg; in the series on rat (per os (oral administration)), more than 2000 mg/kg. Besides, the results for the “Total Serum cholesterol lowering rate” value in the series with serum cholesterol (1.5 mg/kg/day) and in the series on serum cholesterol (6 mg/kg/day) were 9.4% and 23.9%, respectively. Besides, the Remaining rate in series [3] was 14%.
Turning to `CCC(C)C(=O)OC1CC(C)C=C2C=CC(C)C(CCC(CC(O)CC(=O)OC)OP(=O)(O)O)C21` (stereo not shown) [CK3A methyl ester], in the series on synthesis of cholesterol, the “activity of inhibiting the synthesis of cholesterol” value is listed as “strong activity of inhibiting the synthesis of cholesterol”.
In the case of `CCC(C)C(=O)OC1CC(C)C=C2C=CC(C)C(CCC(CC(O)CC(=O)O)OP(=O)(O)O)C21` (stereo not shown) [CK3A, reference compound], the absorbability and effect entry in series [1] was “unsatisfactory”. Moreover, the stability entry in series [2] is on record as “unstable”. In addition, the “activity of inhibiting the synthesis of cholesterol” value in the series on synthesis of cholesterol is recorded as “strong activity of inhibiting the synthesis of cholesterol”. Also, the LD50 in the series on mouse (intraperitoneal injection) is on record as more than 500 mg/kg; in the series with mouse (per os (oral administration)) it was more than 2000 mg/kg; in the series with rat (intraperitoneal injection), more than 500 mg/kg; with rat (per os (oral administration)), more than 2000 mg/kg. The “Total Serum cholesterol lowering rate” value is listed as 9.7% in the series on serum cholesterol (1.5 mg/kg/day) and 24.4% with serum cholesterol (6 mg/kg/day). Besides, the Remaining rate in series [3] is given as 13%.

As usually defined, the LD50 is the dose expected to kill half of the subjects tested. A high value points to a less toxic substance.

Source of the values: patent publication US4701448A, “Metal salt of organic phosphate and an antihyperlipemic agent containing the same” (Asahi Denka Kogyo Kabushiki Kaisha, priority 1985, dated 1987).
